Experimental data reported in patent US10301354B2, “Antibacterial and fungicidal peptide in which lysine and tryptophan residues are repeated, and use thereof” (priority 2011, dated 2019).
In brackets after ≈: the same amount, converted by molar mass. Where two headings read alike, the source gives them in different places. Where no end group is shown, it is not given here.

Assays:
C. albicans CCARM 14007 = assay: MIC in antibiotic-tolerant fungi; assay type: cell-based; conditions: Candida albicans, CCARM14007; RMPI 1640
Procedure: (§1) To measure the fungicidal activity of the peptide prepared in Example 1, the present inventors measured MIC, the minimal concentration that can keep the strain without being divided. For the measurement of fungicidal activity, pathogenic fungi selected from the group consisting of Candida albicans, C. catenulate, C. intermidia, C. rugosa, C. glabrata and C. melibiosica were used. After cultured in optimal media, the strains were diluted at the density of 2×10^5 cells/ml, which were then inoculated on microtitrate plates. The peptide synthesized in Example 1 and the positive control peptide (Melittin) were 2-fold diluted in solution 1 (10 mM sodium phosphate buffer, pH 7.2) and solution 2 (phosphate buffered saline) from 128 μM/well, which were added in the plate, followed by culture at 37° C. for 18˜24 hours. OD620 was measured with a microtitrate plate reader to determine MIC of each strain.
(§2) To measure the fungicidal activity of the peptide of the present invention in antibiotic-tolerant fungi, MIC of the peptide was measured by the same manner as described in Example <2-2> using RMPI 1640 and antibiotic-tolerant Candida albicans (C. albicans CCARM 14001, 14007, 14020).

C. albicans CCARM 14001 = assay: MIC in antibiotic-tolerant fungi; assay type: cell-based; conditions: Candida albicans, CCARM14001; RMPI 1640
Procedure: as §1, §2

C. albicans CCARM 14020 = assay: MIC in antibiotic-tolerant fungi; assay type: cell-based; conditions: Candida albicans, CCARM14020
Procedure: as §1, §2

S. aureus CCARM 3126 = assay: MIC in antibiotic-tolerant strains; assay type: cell-based, Staphylococcus aureus
Text: (§3) To measure the antibacterial activity of the peptide prepared in Example 1, the present inventors measured MIC, the minimal concentration that can keep the strain without being divided. For the measurement of antibacterial activity, Gram-positive bacteria selected from the group consisting of Bacillus subtilis, Staphylococcus aureus and Listeria monocytogenes, Gram-negative bacteria selected from the group consisting of Escherichia coli, Psedomonas aeruginosa and Salmonella typhimurium, and antibiotic-tolerant strains selected from the group consisting of E. coli (E. coli CCARM 1229, 1238), Salmonella (S. typhimurium CCARM 8007, 8009, 8013) and Staphylococcus (S. aureus CCARM 3089, 3090, 3108, 3114, 3126) were used. After cultured in optimal media, the strains were diluted at the density of 2×10^5 cells/ml, which were then inoculated on microtitrate plates. The peptide synthesized in Example 1 and the positive control peptide (Melittin) were 2-fold diluted in sodium phosphate buffer and phosphate buffered saline (PBS) from 200 μM/well, which were added in the plate, followed by culture at 37° C. for 18˜24 hours. OD620 was measured with a microtitrate plate reader to determine MIC of each strain. The results are presented in Table 1 (the number in bracket indicates the one obtained from PBS).

S. aureus CCARM 3089 = assay type: cell-based, Staphylococcus aureus
Text: as §3

S. aureus CCARM 3108 = assay type: cell-based, Staphylococcus aureus
Text: as §3

S. aureus CCARM 3114 = assay type: cell-based, Staphylococcus aureus
Text: as §3

S. aureus CCARM 3090 = assay type: cell-based, Staphylococcus aureus
Text: as §3

L. monocytogenes = assay type: cell-based, Listeria monocytogenes
Text: as §3

E. coli CCARM 1238 = assay type: cell-based, Escherichia coli
Text: as §3

[1] = system: S. typhimurium CCARM 8013; assay type: cell-based, Salmonella typhimurium
Text: as §3

[2] = system: S. typhimurium CCARM 8009; assay type: cell-based, Salmonella typhimurium
Text: as §3

[3] = system: S. typhimurium CCARM 8007; assay type: cell-based, Salmonella typhimurium
Text: as §3

OC(Cn1cncn1)(Cn1cncn1)c1ccc(F)cc1F [Fluconazole]
MIC (C. albicans CCARM 14007): > 128 µM | MIC (C. albicans CCARM 14001): > 128 µM | MIC (C. albicans CCARM 14020): > 128 µM

CC[C@H](C)[C@H](NC(=O)CN)C(=O)NCC(=O)N[C@@H](C)C(=O)N[C@H](C(=O)N[C@@H](CC(C)C)C(=O)N[C@@H](CCCCN)C(=O)N[C@H](C(=O)N[C@@H](CC(C)C)C(=O)N[C@H](C(=O)N[C@H](C(=O)NCC(=O)N[C@@H](CC(C)C)C(=O)N1CCC[C@H]1C(=O)N[C@@H](C)C(=O)N[C@@H](CC(C)C)C(=O)N[C@H](C(=O)N[C@@H](CO)C(=O)N[C@@H](Cc1c[nH]c2ccccc12)C(=O)N[C@H](C(=O)N[C@@H](CCCCN)C(=O)N[C@@H](CCCNC(=N)N)C(=O)N[C@@H](CCCCN)C(=O)N[C@@H](CCCNC(=N)N)C(=O)N[C@@H](CCC(N)=O)C(=O)N[C@@H](CCC(N)=O)C(N)=O)[C@@H](C)CC)[C@@H](C)CC)[C@@H](C)O)[C@@H](C)O)C(C)C)C(C)C [Melittin]
MIC (S. aureus CCARM 3126; PBS (number in bracket)): (1.56) μM | MIC (S. aureus CCARM 3126; sodium phosphate buffer): 1.56 µM (≈ 4.44 µg/mL) | MIC (S. aureus CCARM 3089; PBS (number in bracket)): (1.56) μM | MIC (S. aureus CCARM 3089; sodium phosphate buffer): 1.56 µM (≈ 4.44 µg/mL) | MIC (S. aureus CCARM 3108; PBS (number in bracket)): (1.56) μM | MIC (S. aureus CCARM 3108; sodium phosphate buffer): 1.56 µM (≈ 4.44 µg/mL) | MIC (S. aureus CCARM 3114; PBS (number in bracket)): (3.12) μM | MIC (S. aureus CCARM 3114; sodium phosphate buffer): 3.12 µM (≈ 8.88 µg/mL) | MIC (S. aureus CCARM 3090; PBS (number in bracket)): (3.12) μM | MIC (S. aureus CCARM 3090; sodium phosphate buffer): 3.12 µM (≈ 8.88 µg/mL) | MIC (L. monocytogenes; PBS (number in bracket)): (1.56) μM | MIC (L. monocytogenes; sodium phosphate buffer): 1.56 µM (≈ 4.44 µg/mL) | MIC (E. coli CCARM 1238; PBS (number in bracket)): (1.56) μM | MIC (E. coli CCARM 1238; sodium phosphate buffer): 1.56 µM (≈ 4.44 µg/mL) | MIC ([1]; PBS (number in bracket)): (6.25) μM | MIC ([1]; sodium phosphate buffer): 3.12 µM (≈ 8.88 µg/mL) | MIC ([2]; PBS (number in bracket)): (12.5) μM | MIC ([2]; sodium phosphate buffer): 6.25 µM (≈ 17.8 µg/mL) | MIC ([3]; PBS (number in bracket)): (12.5) μM | MIC ([3]; sodium phosphate buffer): 6.25 µM (≈ 17.8 µg/mL)

KWKWKWKW-NH2 [SEQ. ID. NO: 3]
MIC (S. aureus CCARM 3126; sodium phosphate buffer): 12.5 µM
